In BindingDB's records for doi:10.1002/cbic.200400099 (Technische UniversitÄT Braunschweig, 2005):
pIC50: −log10 of the molar value.

Legend:
Assay in all cases: Kinase Assay
Details in all cases: pH 7.5; 30 °C
[1] = molecular target: Cyclin-dependent kinase 1 (Homo sapiens, UniProt P06493)
From the text: (§1) Kinase activity assay using GSK-3beta, CDK1/cyclin B and CDK5/p25.

[2] = molecular target: Cyclin-dependent kinase 5 (Homo sapiens, UniProt Q00535)
From the text: as §1

[3] = molecular target: Glycogen synthase kinase-3 beta (Homo sapiens, UniProt P49841)
Glycogen synthase kinase-3 beta, sequence (P49841 whole entry): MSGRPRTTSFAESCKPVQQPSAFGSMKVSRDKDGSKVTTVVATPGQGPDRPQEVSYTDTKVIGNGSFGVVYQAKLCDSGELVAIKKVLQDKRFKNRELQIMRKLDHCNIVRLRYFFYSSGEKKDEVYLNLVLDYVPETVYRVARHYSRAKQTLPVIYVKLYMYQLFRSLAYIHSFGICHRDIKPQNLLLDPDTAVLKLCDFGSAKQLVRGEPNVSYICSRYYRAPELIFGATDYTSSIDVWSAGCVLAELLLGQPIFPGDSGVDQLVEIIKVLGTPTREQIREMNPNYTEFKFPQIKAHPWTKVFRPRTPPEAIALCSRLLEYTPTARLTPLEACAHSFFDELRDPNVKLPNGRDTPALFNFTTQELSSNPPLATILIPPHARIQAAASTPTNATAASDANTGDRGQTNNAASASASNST
From the text: as §1

Cyclin-dependent kinase 5, sequence (Q00535 whole entry): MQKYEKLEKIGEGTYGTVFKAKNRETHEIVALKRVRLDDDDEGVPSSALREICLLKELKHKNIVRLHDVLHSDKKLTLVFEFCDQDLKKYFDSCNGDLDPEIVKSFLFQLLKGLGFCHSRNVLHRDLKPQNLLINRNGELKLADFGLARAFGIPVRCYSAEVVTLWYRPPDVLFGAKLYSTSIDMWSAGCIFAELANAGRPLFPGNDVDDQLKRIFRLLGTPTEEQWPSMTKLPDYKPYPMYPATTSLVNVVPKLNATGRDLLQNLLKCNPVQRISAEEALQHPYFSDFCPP
Cyclin-dependent kinase 1, sequence (P06493 whole entry): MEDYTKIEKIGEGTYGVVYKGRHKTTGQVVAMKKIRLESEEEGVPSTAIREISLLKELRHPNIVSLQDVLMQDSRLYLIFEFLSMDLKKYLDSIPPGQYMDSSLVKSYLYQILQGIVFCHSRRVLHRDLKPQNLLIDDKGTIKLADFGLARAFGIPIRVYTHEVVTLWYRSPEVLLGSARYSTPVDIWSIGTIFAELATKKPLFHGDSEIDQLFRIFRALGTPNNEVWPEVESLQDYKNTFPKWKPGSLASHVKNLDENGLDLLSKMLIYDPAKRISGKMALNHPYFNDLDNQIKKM

| Compound | pIC50 [1] | pIC50 [2] | pIC50 [3] |
| --- | --- | --- | --- |
| COC(=O)CCc1ccc2c(c1)-c1[nH]c3ccc([N+](=O)[O-])cc3c1CC(=O)N2 [Alsterpaullone derivative, 6] | 7.00 | 6.60 | 7.47 |
| O=C(O)CCc1ccc2c(c1)-c1[nH]c3ccc([N+](=O)[O-])cc3c1CC(=O)N2 [Alsterpaullone derivative, 5] | 7.60 | 7.10 | 8.19 |
| NCCCc1ccc2c(c1)-c1[nH]c3ccc([N+](=O)[O-])cc3c1CC(=O)N2 [Alsterpaullone derivative, 4] | 7.57 | 7.64 | 8.60 |
| NCCCCc1ccc2c(c1)-c1[nH]c3ccc([N+](=O)[O-])cc3c1CC(=O)N2 [Alsterpaullone derivative, 3] | 7.10 | 7.15 | 8.22 |
| N#CCCc1ccc2c(c1)-c1[nH]c3ccc([N+](=O)[O-])cc3c1CC(=O)N2 | 9.64 | 7.52 | 9.10 |
